# In ChEMBL document CHEMBL4339185 (Eur J Med Chem, 2019):
# Columns and labels:
# [1] = tested on: Staphylococcus aureus; test: Antimicrobial activity against methicillin-resistant Staphylococcus aureus incubated for 18 hrs by serial microdilution method; type: functional
# [2] = tested on: Staphylococcus aureus; test: Antimicrobial activity against Staphylococcus aureus ATCC 6538 incubated for 18 hrs by serial microdilution method; type: functional; conditions: ATCC 6538, 18 h
# [3] = tested on: Staphylococcus aureus; test: Antimicrobial activity against MLSB-resistant Staphylococcus aureus incubated for 18 hrs by serial microdilution method; type: functional
# [4] = tested on: Staphylococcus epidermidis; test: Antimicrobial activity against Staphylococcus epidermidis ATCC 12228 incubated for 18 hrs by serial microdilution method; type: functional; conditions: ATCC 12228, 18 h
# [5] = tested on: Staphylococcus epidermidis; test: Antimicrobial activity against Staphylococcus epidermidis ATCC 49134 incubated for 18 hrs by serial microdilution method; type: functional; conditions: ATCC 49134, 18 h
# [6] = tested on: Enterococcus faecalis; test: Antimicrobial activity against Enterococcus faecalis ATCC 29212 incubated for 18 hrs by serial microdilution method; type: functional; conditions: ATCC 29212, 18 h
# [7] = tested on: Escherichia coli; test: Antimicrobial activity against Escherichia coli ATCC 25922 incubated for 18 hrs by serial microdilution method; type: functional; conditions: ATCC 25922, 18 h
# [8] = Solubility of the compound in water at pH 7 by UV-vis spectrophotometric analysis; type: physicochemical
# [9] = Lipophilicity, log P of the compound in octanol and water incubated for 1 h under shaking condition; type: physicochemical
Structure (SMILES),MIC [1],MIC [2],MIC [3],MIC [4],MIC [5],MIC [6],MIC [7],solubility [8],logP at 1 h [9]
CO[C@H]1/C=C/O[C@@]2(C)Oc3c(C)c(O)c4c(O)c(c(C=O)c(O)c4c3C2=O)NC(=O)/C(C)=C\C=C\[C@H](C)[C@H](O)[C@@H](C)[C@@H](O)[C@@H](C)[C@H](OC(C)=O)[C@@H]1C,4 µg/mL,2 µg/mL,2 µg/mL,2 µg/mL,2 µg/mL,> 8 µg/mL,> 8 µg/mL,,
CO[C@H]1/C=C/O[C@@]2(C)Oc3c(C)c(O)c4c(O)c(c(CN5CCC6(CC5)NCCc5ccccc56)c(O)c4c3C2=O)NC(=O)/C(C)=C\C=C\[C@H](C)[C@H](O)[C@@H](C)[C@@H](O)[C@@H](C)[C@H](OC(C)=O)[C@@H]1C,8 µg/mL,8 µg/mL,8 µg/mL,2 µg/mL,2 µg/mL,4 µg/mL,> 8 µg/mL,< 50 µg/mL,2.09
CO[C@H]1/C=C/O[C@@]2(C)Oc3c(C)c(O)c4c(O)c(c(CN5CCN(Cc6ccc(F)cc6)CC5)c(O)c4c3C2=O)NC(=O)/C(C)=C\C=C\[C@H](C)[C@H](O)[C@@H](C)[C@@H](O)[C@@H](C)[C@H](OC(C)=O)[C@@H]1C,1 µg/mL,1 µg/mL,0.25 µg/mL,0.25 µg/mL,0.25 µg/mL,8 µg/mL,> 8 µg/mL,< 50 µg/mL,3.31
CO[C@H]1/C=C/O[C@@]2(C)Oc3c(C)c(O)c4c(O)c(c(CN5CCC(N(C)C)CC5)c(O)c4c3C2=O)NC(=O)/C(C)=C\C=C\[C@H](C)[C@H](O)[C@@H](C)[C@@H](O)[C@@H](C)[C@H](OC(C)=O)[C@@H]1C,0.25 µg/mL,0.25 µg/mL,0.125 µg/mL,0.125 µg/mL,0.125 µg/mL,8 µg/mL,> 8 µg/mL,1870 µg/mL,1.23
CO[C@H]1/C=C/O[C@@]2(C)Oc3c(C)c(O)c4c(O)c(c(CNC5CCN(S(C)(=O)=O)CC5)c(O)c4c3C2=O)NC(=O)/C(C)=C\C=C\[C@H](C)[C@H](O)[C@@H](C)[C@@H](O)[C@@H](C)[C@H](OC(C)=O)[C@@H]1C,1 µg/mL,1 µg/mL,0.5 µg/mL,0.5 µg/mL,0.25 µg/mL,> 8 µg/mL,> 8 µg/mL,< 50 µg/mL,2.34
CO[C@H]1/C=C/O[C@@]2(C)Oc3c(C)c(O)c4c(O)c(c(CN5CCN(C)C6(CCN(C)CC6)C5)c(O)c4c3C2=O)NC(=O)/C(C)=C\C=C\[C@H](C)[C@H](O)[C@@H](C)[C@@H](O)[C@@H](C)[C@H](OC(C)=O)[C@@H]1C,0.125 µg/mL,0.25 µg/mL,0.125 µg/mL,0.0625 µg/mL,0.0625 µg/mL,2 µg/mL,> 8 µg/mL,1830 µg/mL,0.72
CO[C@H]1/C=C/O[C@@]2(C)Oc3c(C)c(O)c4c(O)c(c(CNC56CC7CC(CC(C7)C5)C6)c(O)c4c3C2=O)NC(=O)/C(C)=C\C=C\[C@H](C)[C@H](O)[C@@H](C)[C@@H](O)[C@@H](C)[C@H](OC(C)=O)[C@@H]1C,0.5 µg/mL,0.5 µg/mL,0.5 µg/mL,4 µg/mL,2 µg/mL,1 µg/mL,> 8 µg/mL,< 50 µg/mL,1.91
CO[C@H]1/C=C/O[C@@]2(C)Oc3c(C)c(O)c4c(O)c(c(CNCCN5CCCC5=O)c(O)c4c3C2=O)NC(=O)/C(C)=C\C=C\[C@H](C)[C@H](O)[C@@H](C)[C@@H](O)[C@@H](C)[C@H](OC(C)=O)[C@@H]1C,2 µg/mL,2 µg/mL,4 µg/mL,2 µg/mL,1 µg/mL,> 8 µg/mL,> 8 µg/mL,100 µg/mL,1.24
CO[C@H]1/C=C/O[C@@]2(C)Oc3c(C)c(O)c4c(O)c(c(CNC5CCN(C(=O)OC(C)(C)C)CC5)c(O)c4c3C2=O)NC(=O)/C(C)=C\C=C\[C@H](C)[C@H](O)[C@@H](C)[C@@H](O)[C@@H](C)[C@H](OC(C)=O)[C@@H]1C,0.5 µg/mL,0.5 µg/mL,0.5 µg/mL,0.25 µg/mL,0.25 µg/mL,4 µg/mL,> 8 µg/mL,< 50 µg/mL,2.8
CO[C@H]1/C=C/O[C@@]2(C)Oc3c(C)c(O)c4c(O)c(c(CN5CCN(c6ccncc6)CC5)c(O)c4c3C2=O)NC(=O)/C(C)=C\C=C\[C@H](C)[C@H](O)[C@@H](C)[C@@H](O)[C@@H](C)[C@H](OC(C)=O)[C@@H]1C,2 µg/mL,2 µg/mL,2 µg/mL,0.5 µg/mL,0.5 µg/mL,> 8 µg/mL,> 8 µg/mL,< 50 µg/mL,2.06
